How the values were obtained:
miR-10a = experiment: cells; assay type: cell-based, human
Procedure: Northern Blot analysis was performed essentially according to Kloosterman et al. ^16 using a miR-10 LNA probe ([…]) (Exiqon, Denmark). We had previously described protocols for RT-PCR^17 and RT-qPCR^18 . Primers for the RT-PCR were: HOXB1: sc-38686 and HOXB3: sc-38690-PR and RARα: sc-29465-PR all from Santa Cruz Biotechnology. For quantitative RT-PCR we used 100 ng of total RNA and the Roche Master SYBR Green kit. Single-band amplification was verified by melting curve dissociation protocols. A standard curve for β-actin using 1, 5, 10, 100, and 500 ng of total RNA was used for normalization. […]
PaTu-T cells were incubated as indicated, with DMSO (Co), 200 nM Ro-41-5253 (RARα inh), control-Morpholino, miR-10a Morpholino, miR-196 siRNA (Co), or RARα siRNA and PaTu-S cells were co-incubated with 1 µM retinoic acid (RA) and control siRNA, RARα siRNA or Ro-415253 and miR-10a expression was evaluated by Northern blot analysis (A). […] The effect of Ro-415253 on cell migration was analysed in an in vitro migration assay in PaTu-T cells. […]
PaTu-T cells were incubated for 24h with indicated concentrations of Ro-415253 and miR-10a expression was evaluated by northern blot analysis (upper panel). […] Patu-S cells were incubated tor 24h with indicated concentrations of ATRA and miR-10a expression was evaluated by northern blot analysis (upper panel). […]

HOXB1 = experiment: RT-PCR / RT-qPCR of HOXB1 expression; assay type: cell-based, human; settings: quantitative PCR
Procedure: (§1) Northern Blot analysis was performed essentially according to Kloosterman et al. ^16 using a miR-10 LNA probe ([…]) (Exiqon, Denmark). We had previously described protocols for RT-PCR^17 and RT-qPCR^18 . Primers for the RT-PCR were: HOXB1: sc-38686 and HOXB3: sc-38690-PR and RARα: sc-29465-PR all from Santa Cruz Biotechnology. For quantitative RT-PCR we used 100 ng of total RNA and the Roche Master SYBR Green kit. Single-band amplification was verified by melting curve dissociation protocols. A standard curve for β-actin using 1, 5, 10, 100, and 500 ng of total RNA was used for normalization. RT-qPCR primers for HOXB1 were: forward 5'-[…]-3' and reverse 5'-[…]-3' and for HOXB3: forward 5'-[…]-3' and reverse 5'-[…]-3'.
(§2) PaTu-S and PaTu-T cells were treated (24h) as indicated with specific siRNAs against HOXB1 (B1) and HOXB3 (B3) (Co: DMSO control) in the presence or absence of Ro-41-5253. Migration of these cells was analysed after transplantation into zebrafish embryos (see Table 1) and downregulation of HOXB1 and HOXB3 expression in these cells was confirmed by PCR analysis (A).
(§3) A similar regulation is seen following incubation with miR-10a Morpholinos or with miR-10a siRNAs (right side; Control: control Morpholino or control-siRNA) (B). Results are normalized to β-actin expression and similar results were obtained in three independent experiments. […]

HOXB3 = experiment: RT-PCR / RT-qPCR of HOXB3 expression; assay type: cell-based, human; settings: quantitative PCR
Procedure: as §1, §2, §3

PaTu-T cells [1] = experiment: In vitro migration assay (scratch assay); assay type: cell-based, human; settings: compared to DMSO control
Procedure: (§4) We used the selective RARα antagonist Ro-41-5253; to analyze its anti-migratory activity in an in vitro migration assay ("scratch assay") and in the zebrafish xenotransplantation model, respectively. […] Similar results were obtained when PaTu-T cells were treated with RAR -specific siRNAs (Supplemental Table 1 and Supplemental Fig. 1).
PaTu-T cells were incubated as indicated, with DMSO (Co), 200 nM Ro-41-5253 (RARα inh), control-Morpholino, miR-10a Morpholino, miR-196 siRNA (Co), or RARα siRNA and PaTu-S cells were co-incubated with 1 µM retinoic acid (RA) and control siRNA, RARα siRNA or Ro-415253 and miR-10a expression was evaluated by Northern blot analysis (A). […] RT-PCR control of GAPDH was used as a loading control (not shown). Dose response curves for RA and the RARα antagonist and the RT-PCR control for RARα siRNA treatment are shown in Supplemental Fig. 1. The effect of Ro-415253 on cell migration was analysed in an in vitro migration assay in PaTu-T cells. […] An actin re-blot confirmed equal loading.

PaTu-T cells [2] = experiment: Cell survival and cell cycle distribution by propidium iodine staining (FACS); assay type: cell-based, human
Text: Targeting endogenous miR-10a with Morpholinos rendered PaTu-T-cells non-invasive and prevented metastatic behaviour in zebrafish embryos, whereas a control Morpholino had no such effect (Fig.4 B, Table1 and Supplemental Table 1). […] (analysed by propidium iodine (PI) staining, data not shown).
as §4
Supplemental Figure 3: Cell cycle analysis of RARα siRNA or Ro-415253 treated PaTu-T cells. Cells were treated with either DMSO control (A), RARα siRNA (B) or 200 nM Ro-415253 (C) and fixed after 24h with 70% EtOH. Following propidium iodine (PI) staining the cells were analysed by a LSR2 FACS sorter (Becton Dickinson). […] Gate P2 indicates cells in G0/1 phase, gate 3 represents cells in S phase and gate 4 represents Cells in M/G2 phase.

RARα = target: T1, RARα (Homo sapiens, UniProt P10276); settings: literature references 14, 15; read-out: 50% inhibition; cited from earlier work
T1 sequence (P10276 1-462): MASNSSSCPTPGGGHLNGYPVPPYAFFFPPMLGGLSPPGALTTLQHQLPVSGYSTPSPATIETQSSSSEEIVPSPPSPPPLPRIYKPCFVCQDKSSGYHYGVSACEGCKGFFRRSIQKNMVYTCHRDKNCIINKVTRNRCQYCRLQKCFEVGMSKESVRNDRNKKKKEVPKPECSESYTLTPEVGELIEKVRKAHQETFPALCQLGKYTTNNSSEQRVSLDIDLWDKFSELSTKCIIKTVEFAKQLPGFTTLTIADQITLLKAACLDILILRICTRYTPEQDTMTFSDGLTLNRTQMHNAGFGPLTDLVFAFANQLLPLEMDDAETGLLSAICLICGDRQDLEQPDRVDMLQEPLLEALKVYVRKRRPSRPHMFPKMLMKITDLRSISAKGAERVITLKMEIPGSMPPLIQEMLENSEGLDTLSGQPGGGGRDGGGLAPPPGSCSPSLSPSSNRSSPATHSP

| SMILES | fold induction at 1 µM (miR-10a; Homo sapiens, 24 h, read-out: miR-10a expression upregulated) | HOXB1 expression (HOXB1; PaTu-S cells) | HOXB3 expression (HOXB3; PaTu-S cells) | upregulation of miR-10a expression by retinoic acid (miR-10a; PaTu-S cells co-incubated with 1 µM retinoic acid) | cell migration (PaTu-T cells [1]) | cell migration (PaTu-T cells [1]; listed as RARα antagonist) | cell cycle distribution (PaTu-T cells [2]; 24h, Ro-415253 at 200 nM, PI staining, FACS) | general cell survival (PaTu-T cells [2]; propidium iodine (PI) staining) | HOXB1 expression (HOXB1; PaTu-T cells) | HOXB3 expression (HOXB3; PaTu-T cells) | IC50 (RARα) |
| --- | --- | --- | --- | --- | --- | --- | --- | --- | --- | --- | --- |
| CC1=C(/C=C/C(C)=C/C=C/C(C)=C/C(=O)O)C(C)(C)CCC1 [RA, all trans retinoic acid] | 7.2 | decreased | decreased | – | – | – | – | – | – | – | – |
| CCCCCCCOc1cc2c(cc1/C(C)=C/c1ccc(C(=O)O)cc1)C(C)(C)CCS2(=O)=O [Ro-41-5253, Benzoic acid, 4-(2-(7-(heptyloxy)-3,4-dihydro-4,4-dimethyl-2H-1-benzothiopyran-6-yl)-1-propenyl)-, S,S-dioxide, (E)] | – | – | – | completely blocked | significant inhibition | significantly decreased | No differences | no adverse affects | increased | increased | 60 nM |

Source: patent publication EP2329817A1, “Retinoic acid receptor antagonists, miR-10a inhibitors and inhibitors of HOXB1 or HOXB3 repressors for treating pancreatic cancer” (Ernst-Moritz-Arndt-Universität Greifswald, priority 2009, dated 2011)
